Broadly, the pIC50 is the IC50 on a negative log10 scale, so that one unit is a factor of ten. Read a high pIC50 as a small IC50.

The target in the test is T1, bromodomain BRD4 (44-168), BRD4 (333-460), and BRD4 (1-477 or 44-460) (Homo sapiens, UniProt O60885).
T1 construct: BRD4(44-168), BRD4(333-460), BRD4(44-460), BRD4(1-477), O60885-1; fused on or other part: N-terminal BirA biotinylation motif, biotinylated; The TVMV-cleavable His6 tag is removed, except in some BRD4(44-460) runs detected with anti-His terbium cryptate
The test can be described thus: Time Resolved Fluorescence Resonance Energy Transfer (TR-FRET) binding assay. As to conditions: one of the FRET assays described. Background: TR-FRET usually uses a lanthanide donor and a delayed reading to cut background.

pIC50: −log10 of the molar value.

Consider `CNC(=O)c1cc(-c2c(C)noc2C)cc2c1c1cc(N3CCCOC3=O)ccc1n2Cc1ccccc1` [Example 169, 9-benzyl-2-(3,5-dimethyl-4-isoxazolyl)-N-methyl-6-(2-oxo-1,3-oxazinan-3-yl)-9H-carbazole-4-carboxamide], for which the pIC50 was over 7.30. `CNC(=O)c1cc(-c2c(C)noc2C)cc2c1c1cc(N3CCCOC3=O)ccc1n2Cc1ccc(Cl)cc1` [Example 170, 9-(4-chlorobenzyl)-2-(3,5-dimethyl-4-isoxazolyl)-N-methyl-6-(2-oxo-1,3-oxazinan-3-yl)-9H-carbazole-4-carboxamide]: the pIC50 is over 7.30. Next, `CNC(=O)c1cc(-c2c(C)noc2C)cc2c1c1cc(N3CCCOC3=O)ccc1n2Cc1ccc(F)cc1` [Example 171, 2-(3,5-dimethyl-4-isoxazolyl)-9-(4-fluorobenzyl)-N-methyl-6-(2-oxo-1,3-oxazinan-3-yl)-9H-carbazole-4-carboxamide]: over 7.30; `CNC(=O)c1cc(-c2c(C)noc2C)cc2c1c1cc(N3CCCOC3=O)ccc1n2Cc1ccc(Cl)c(F)c1` [Example 172, 9-(4-chloro-3-fluorobenzyl)-2-(3,5-dimethyl-4-isoxazolyl)-N-methyl-6-(2-oxo-1,3-oxazinan-3-yl)-9H-carbazole-4-carboxamide]: over 7.30; `CNC(=O)c1cc(-c2c(C)noc2C)cc2c1c1cc(N3CCCOC3=O)ccc1n2C(C)c1ccccc1` (stereo not drawn) [Example 173, 2-(3,5-dimethyl-4-isoxazolyl)-N-methyl-6-(2-oxo-1,3-oxazinan-3-yl)-9-(1-phenylethyl)-9H-carbazole-4-carboxamide]: over 5.12. Next, `Cc1noc(C)c1-c1cc(C(N)=O)c2c3cc(N4CCCS4(=O)=O)ccc3n(Cc3ccc(F)cc3)c2c1` [Example 174, 2-(3,5-dimethyl-4-isoxazolyl)-6-(1,1-dioxido-2-isothiazolidinyl)-9-(4-fluorobenzyl)-9H-carbazole-4-carboxamide]: over 7.30; `Cc1noc(C)c1-c1cc(C(N)=O)c2c3cc(N4CCCCS4(=O)=O)ccc3n(Cc3ccc(F)cc3)c2c1` [Example 175, 2-(3,5-dimethyl-4-isoxazolyl)-6-(1,1-dioxido-1,2-thiazinan-2-yl)-9-(4-fluorobenzyl)-9H-carbazole-4-carboxamide]: over 7.30. On to `COc1ccc2c(c1)c1c(C(N)=O)cc(-c3c(C)noc3C)cc1n2C(C)c1ccccc1` (stereo not drawn) [Example 176, 2-(3,5-dimethyl-4-isoxazolyl)-6-methoxy-9-(1-phenylethyl)-9H-carbazole-4-carboxamide], for which the pIC50 was over 7.30. Next, `COc1ccc2c(c1)c1c(C(N)=O)cc(-c3c(C)noc3C)cc1n2Cc1ccccc1` [Example 177, 9-benzyl-2-(3,5-dimethyl-4-isoxazolyl)-6-methoxy-9H-carbazole-4-carboxamide]: over 7.30; `Cc1noc(C)c1-c1cc(C(N)=O)c2c3cc(O)ccc3n(Cc3ccccc3)c2c1` [Example 178, 9-benzyl-2-(3,5-dimethyl-4-isoxazolyl)-6-hydroxy-9H-carbazole-4-carboxamide]: over 7.30. Next, `Cc1noc(C)c1-c1cc(C(N)=O)c2c3cc(S(C)(=O)=O)ccc3n(Cc3ccccc3)c2c1` [Example 181, 9-benzyl-2-(3,5-dimethyl-4-isoxazolyl)-6-(methylsulfonyl)-9H-carbazole-4-carboxamide]: over 7.30; `COC(=O)c1ccc2c3c(C#N)cc(-c4c(C)noc4C)cc3n(Cc3ccccc3)c2c1` [Example 182, Methyl 9-benzyl-5-cyano-7-(3,5-dimethyl-4-isoxazolyl)-9H-carbazole-2-carboxylate]: over 5.12.

For `COC(=O)c1ccc2c3c(C(N)=O)cc(-c4c(C)noc4C)cc3n(Cc3ccccc3)c2c1` [Example 183, Methyl 9-benzyl-5-carbamoyl-7-(3,5-dimethyl-4-isoxazolyl)-9H-carbazole-2-carboxylate], the pIC50 was over 7.30. Then `Cc1noc(C)c1-c1cc(C#N)c2c3ccc(C(C)(C)O)cc3n(Cc3ccccc3)c2c1` [Example 184, 9-benzyl-2-(3,5-dimethyl-4-isoxazolyl)-7-(1-hydroxy-1-methylethyl)-9H-carbazole-4-carbonitrile], with over 6.30; and `Cc1noc(C)c1-c1cc(C#N)c2c3ccc(C(=O)O)cc3n(Cc3ccccc3)c2c1` [Example 186, 9-Benzyl-5-cyano-7-(3,5-dimethyl-4-isoxazolyl)-9H-carbazole-2-carboxylic acid], with over 7.30. Next, `Cc1noc(C)c1-c1cc(C#N)c2c3ccc(C(=O)N4CCOCC4)cc3n(Cc3ccccc3)c2c1` [Example 187, 9-Benzyl-2-(3,5-dimethyl-4-isoxazolyl)-7-(morpholine-4-carbonyl)-9H-carbazole-4-carbonitrile]: over 6.30. Next, `Cc1noc(C)c1-c1cc(C(N)=O)c2c3ccc(C(=O)N4CCOCC4)cc3n(Cc3ccccc3)c2c1` [Example 188, 9-Benzyl-2-(3,5-dimethyl-4-isoxazolyl)-7-(morpholine-4-carbonyl)-9H-carbazole-4-carboxamide]: over 7.30; `CON(C)C(=O)c1ccc2c3c(C(N)=O)cc(-c4c(C)noc4C)cc3n(Cc3ccccc3)c2c1` [Example 189, 9-Benzyl-7-(3,5-dimethyl-4-isoxazolyl)-N˜2˜-methoxy-N˜2˜-methyl-9H-carbazole-2,5-dicarboxamide]: over 7.30. `Cc1noc(C)c1-c1cc(C(N)=O)c2c3ccc(C(=O)c4cccc(F)c4)cc3n(Cc3ccccc3)c2c1` [Example 190, 9-Benzyl-2-(3,5-dimethyl-4-isoxazolyl)-7-(3-fluorobenzoyl)-9H-carbazole-4-carboxamide] gave a pIC50 of over 6.30. `COC(=O)c1ccc2c3c(C#N)cc(-c4c(C)noc4C)cc3n(C(c3ccccc3)c3ccccc3)c2c1` [Example 191, Methyl 5-cyano-7-(3,5-dimethyl-4-isoxazolyl)-9-(diphenylmethyl)-9H-carbazole-2-carboxylate]: the pIC50 was over 7.30. Next, `COC(=O)c1ccc2c3c(C(N)=O)cc(-c4c(C)noc4C)cc3n(C(c3ccccc3)c3ccccc3)c2c1` [Example 192, Methyl 5-carbamoyl-7-(3,5-dimethyl-4-isoxazolyl)-9-(diphenylmethyl)-9H-carbazole-2-carboxylate]: over 7.30. Then `Cc1noc(C)c1-c1cc(C#N)c2c3ccc(C(=O)O)cc3n(C(c3ccccc3)c3ccccc3)c2c1` [Example 193, 5-Cyano-7-(3,5-dimethyl-4-isoxazolyl)-9-(diphenylmethyl)-9H-carbazole-2-carboxylic acid], with over 7.30; and `Cc1noc(C)c1-c1cc(C#N)c2c3ccc(C(N)=O)cc3n(C(c3ccccc3)c3ccccc3)c2c1` [Example 194, 5-Cyano-7-(3,5-dimethyl-4-isoxazolyl)-9-(diphenylmethyl)-9H-carbazole-2-carboxamide], with over 7.30; and `Cc1noc(C)c1-c1cc(C(N)=O)c2c3ccc(C(=O)N(C)C)cc3n(C(c3ccccc3)c3ccccc3)c2c1` [Example 195, 7-(3,5-Dimethyl-4-isoxazolyl)-9-(diphenylmethyl)-N˜2˜,N˜2˜-dimethyl-9H-carbazole-2,5-dicarboxamide], with over 7.30.

The values are drawn from patent publication US9492460B2, “Carbazole compounds useful as bromodomain inhibitors” (Bristol-Myers Squibb Company, priority 2013, dated 2016).
